What is called fraction unbound is the share of the substance not bound to proteins or other matrix. A low value points to little free substance.

The nature of the series: Protein binding. In kind it is in vitro ADME.

In the case of `Cc1c(C)c2c(c(C)c1O)CC[C@@](C)(C(=O)N[C@@H]1CCCNC1)O2.Cl` [KH176, (S)-6-hydroxy-2,5,7,8-tetramethyl-N-((R)-piperidin-3-yl)chroman-2-carboxamide hydrochloride], the fraction unbound fell in the range of 0.4 to 0.5.

Values taken from patent US11285130B2, “Treatment of mitochondrial diseases” (Khondrion IP B.V., priority 2017, dated 2022).
